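Dose response: 5 concentrations. Exposure: 48 h. Format: 96-well plates. Endpoint: linear interpolation; highest concentration if not reached. The concentration for 50% growth inhibition is given as GI50.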 Activity calls are given as the source filed them. No stated cut-off is given here; in the data, active = GI50 up to about 1.1 µM and inactive = higher.
Legend:
Test in all cases: NCI-60 cell line screen, 48 h
KM-20L2 = system: KM-20L2
XF498 = system: XF498
DMS-114 = system: DMS-114
LXFL 529 = system: LXFL 529
DLD-1 = system: DLD-1
HOP-18 = system: HOP-18
M19-MEL = system: M19-MEL
DMS-273 = system: DMS-273

Measured: GI50

COc1ccc(S(=O)(=O)N[C@H](C(=O)O)c2ccccc2)cc1
inactive: KM-20L2 > 100 µM | XF498 > 100 µM | DMS-114 > 100 µM | LXFL 529 > 100 µM | DLD-1 > 100 µM | HOP-18 > 100 µM | M19-MEL > 100 µM | DMS-273 > 100 µM

C/C(=N\NS(=O)(=O)c1ccc(C)cc1)c1c(O)cc(C)oc1=O
inactive: KM-20L2 > 100 µM | LXFL 529 > 100 µM | DLD-1 > 100 µM | HOP-18 > 100 µM | M19-MEL > 100 µM

CCN(CC)CC(O)CNc1ccc(NCC(O)CCl)c2c1C(=O)c1ccccc1C2=O (stereo not given)
inactive: KM-20L2 4.68 µM | XF498 13.4 µM | LXFL 529 1.85 µM | DLD-1 8.83 µM | HOP-18 > 10 µM | M19-MEL 6.82 µM | DMS-273 3.33 µM

CCNCCCCNCCCCNCCCCNCCCCNCC
inactive: KM-20L2 > 100 µM | XF498 > 32.8 µM | DMS-114 > 100 µM | LXFL 529 > 94.8 µM | DLD-1 > 100 µM | HOP-18 > 100 µM | M19-MEL > 100 µM | DMS-273 > 49.7 µM

COC1(OC)C2(Cl)C(Cl)=C(Cl)C1(Cl)C1c3ccc(C(C)=O)c4cccc(c34)C12 (stereo not given)
inactive: KM-20L2 4.53 µM | DMS-114 15.9 µM | LXFL 529 25.6 µM | HOP-18 > 100 µM | M19-MEL 25.6 µM | DMS-273 3.89 µM

N#CCN1C(=O)c2cccc3cc([N+](=O)[O-])cc(c23)C1=O
inactive: KM-20L2 45.2 µM | XF498 25.8 µM | DMS-114 38.7 µM | LXFL 529 40.1 µM | DLD-1 32 µM | HOP-18 > 100 µM | M19-MEL 19.8 µM | DMS-273 30.7 µM

COc1ccc(C23c4ccc(OC)cc4CC2(c2ccc([N+](=O)[O-])cc2)Cc2cc(OC)ccc23)cc1 (stereo not given)
inactive: KM-20L2 > 15.7 µM | XF498 > 100 µM | DMS-114 > 50 µM | LXFL 529 > 54.5 µM | DLD-1 > 22.8 µM | HOP-18 1.17 µM | M19-MEL > 35.2 µM | DMS-273 > 62.2 µM

CCOC(=O)C(=O)Nc1ccc(C)cc1C
inactive: DMS-114 > 100 µM | LXFL 529 > 100 µM | DLD-1 > 100 µM | HOP-18 > 100 µM | M19-MEL > 100 µM

COC(=O)C(CC1=C(O)Nc2ccccc2N1)/C(=N/NC(N)=O)C(=O)Nc1ccccc1C (stereo not given)
inactive: KM-20L2 > 100 µM | DMS-114 12.9 µM | LXFL 529 69.8 µM | DLD-1 41.4 µM | HOP-18 > 100 µM | M19-MEL 60.1 µM | DMS-273 17 µM

CC(C)c1cc2c(O)c(c1)Cc1cc(C(C)C)cc(c1O)Cc1cc(C(C)C)cc(c1O)Cc1cc(C(C)C)cc(c1O)Cc1cc(C(C)C)cc(c1O)Cc1cc(C(C)C)cc(c1O)C2
inactive: KM-20L2 > 100 µM | XF498 > 100 µM | DMS-114 > 100 µM | LXFL 529 > 100 µM | DLD-1 > 100 µM | M19-MEL > 100 µM | DMS-273 > 100 µM

O=C(N/N=C(\C1=Nc2ccc(Cl)cc2NC1O)C(O)/C=C/c1ccccc1)c1ccncc1 (stereo not given)
inactive: KM-20L2 > 100 µM | XF498 > 100 µM | DMS-114 > 100 µM | LXFL 529 > 100 µM | DLD-1 > 100 µM | M19-MEL > 100 µM | DMS-273 > 100 µM

O=C(/C=C/c1ccccc1F)c1ccc([N+](=O)[O-])cc1
inactive: KM-20L2 30.8 µM | XF498 19.6 µM | DMS-114 17.1 µM | LXFL 529 16.6 µM | DLD-1 16.6 µM | HOP-18 57.5 µM | M19-MEL 22.2 µM | DMS-273 36.3 µM

COc1ccc(NC(=O)C/C(C)=N\N=C(N)N)c([N+](=O)[O-])c1
inactive: KM-20L2 > 100 µM | XF498 > 100 µM | DMS-114 > 100 µM | LXFL 529 > 100 µM | DLD-1 34.5 µM | HOP-18 > 100 µM | M19-MEL > 100 µM | DMS-273 > 100 µM

COC(=O)C(=O)CC(=O)CCn1[nH]c(=O)c(Cl)c(Cl)c1=O
inactive: KM-20L2 > 100 µM | XF498 > 100 µM | DMS-114 > 100 µM | LXFL 529 > 100 µM | DLD-1 > 100 µM | M19-MEL > 100 µM | DMS-273 > 100 µM

N#CC1(Cc2ccc(N)cc2)c2ccccc2C=CN1C(=O)c1ccccc1 (stereo not given)
inactive: KM-20L2 34.1 µM | XF498 28.9 µM | DMS-114 38.8 µM | LXFL 529 35.8 µM | DLD-1 40 µM | HOP-18 25.2 µM | M19-MEL 40.1 µM | DMS-273 47.1 µM

Cc1cccc(C)c1NC(=O)C1=NC(=S)NC(c2ccccc2)C1c1nc2ccccc2s1 (stereo not given)
inactive: KM-20L2 > 100 µM | XF498 > 100 µM | DMS-114 > 100 µM | LXFL 529 > 100 µM | DLD-1 > 100 µM | HOP-18 > 100 µM | M19-MEL > 100 µM | DMS-273 > 100 µM

CC(C)(C)C1CCC(O)(c2ccccc2)CC1 (stereo not given)
inactive: KM-20L2 > 100 µM | XF498 1.97 µM | DMS-114 45.6 µM | LXFL 529 78.2 µM | DLD-1 > 100 µM | HOP-18 > 100 µM | M19-MEL > 100 µM | DMS-273 > 100 µM

CCCCCCN(CCCCCC)C(=O)Cc1c2n(c3ccccc13)Cc1ccccc1-2
inactive: KM-20L2 > 100 µM | DMS-114 28.6 µM | LXFL 529 37.4 µM | DLD-1 33.7 µM | HOP-18 > 100 µM | M19-MEL 60.3 µM | DMS-273 36.9 µM

From ChEMBL document CHEMBL1201862, “PubChem BioAssay data set” (2004)
